One experiment addresses SSTR2 (Rattus norvegicus, UniProt P30680). The experiment can be described thus: Competitive binding, displacement of [125I]Tyr11 S-14. On the set-up: expressed in transfected cells. As to conditions: [125I]Tyr11 S-14 250 pM, room temperature 2 hours; for IC50: membrane protein, read-out: SSTR2 Binding Affinity IC50; for Ki: calculated by Cheng and Prusoff, read-out: SSTR2 Binding Affinity Ki. The procedure: In this evaluation the concentration of test compound required to displace 50% of somatostatin, SRIF, from the SRIF receptor subtypes expressed in mammalian cells is measured, i.e., the concentration required to inhibit 50% of [^125I] Tyr^11 S-14 (Amersham) (IC50) from binding to the SRIF receptor subtypes.
Radiolabeled SRIF is mixed with pituitary cells, the test compound is added, the mixture is incubated and the radioactivity is measured as compared to control. Reduced radioactivity indicates successful competitive binding of the test compound to the pituitary cell receptor. The concentration of the test compound in nanomolar units required to displace 50% of SRIF from the pituitary cell receptor is calculated and reported in Table II as the IC50 value. Also calculated is the inhibitory constant, Ki.
Tyr^11S-14 (150,000 cpm at 2000 Ci/mmole, 250 pM final concentration). The binding reaction is initiated by adding 2-60µg of membrane protein in a 170 µL volume. Final reaction volume is 200 µl/well. All incubations are carried out at room temperature for 2 hours. Free radioligand is separated from bound ligand by rapid filtration through a glass fiber filter (IH-201-HA) using an Inotech cell harvester. The filter is then washed several times with cold (4°C) binding buffer lacking BSA and protease inhibitors prior to counting in an LKB gamma master counter (78% efficiency). Whatman GFC filters presoaked in 0.3% polyethylenimine (to decrease background) are used.
The IC50 values and Ki values are calculated using the well-known methods described by Y. Cheng and W. H. Prusoff, Biochem. Pharmacol. 22, 3099-3108 (1973), incorporated herein by reference thereto.

Experiment [1] addresses T1, rat somatostatin receptor subtype 2 (SSTR2) (Rattus norvegicus, UniProt P30680).
T1 construct: expressed in transfected cells; host or cells: Saccharomyces cerevisiae LY364
The experiment can be described thus: Yeast assay, somatostatin antagonist activity (zone of no growth in presence of S-14). In kind it is cell-based. On the set-up: key: 1 is minimum antagonist activity; 5 is maximum antagonist activity; -: When no activity is observed, the result is indicated by a dash. As to conditions: rating on a scale of 1-5 from zone of no growth; 5µL of 1 mg/mL S-14 added to each plate; S. Cerevisiae LY364. How it is done:
To evaluate the somatostatin antagonist activity of a test compound, the above procedure is followed except on day 3, 5µL of 1 mg/mL of somatostatin, S-14, is added to each plate, before applying the test compound. If the test compound is an antagonist of somatostatin, then a zone of no growth will appear within the cell growth zone. This zone of no growth is measured and the test compound is given an antagonist rating on a scale of 1-5 wherein 1 is minimum antagonist activity and 5 is maximum antagonist activity.
The results are shown in Table I. When no activity is observed, the result is indicated by a dash.
(§1) • 1) Inoculate 2 mL SCD-ura-trp liquid medium in Falcon 2051 tube with a single colony taken from a plate containing LY364 (MATa ura3-52 leu2 his3 trp1 lys2 ade2 far1:: LYS2 fus1:: FUS1-HIS3 gpal::hisG sst2::ADE2 bearing the SSTR2 expression plasmid, pJH2, and the G protein expression plasmid, pLP82)cells. • 2) Incubate overnight in a roller drum at 30°C.
(§2) Day 2. • 1) Harvest the cells by centrifugation (3 krpm, 5 min, room temp). • 2) Re-suspend with 5 mL of sterile water. • 3) Harvest again by centrifugation. • 4) Re-suspend in 5 mL SCL-ura-trp liquid medium. • 5) Incubate for 6 hours in a roller drum at 30°C. • 6) Harvest the cells again by centrifugation. • 7) Re-suspend in 5 mL SCG-ura-trp liquid medium. • 8) Incubate overnight in a roller drum at 30°C.
(§3) Day 3. • 1) Autoclave SCG-ura-trp-his pH 6.8 agar medium. • 2) Cool to 55°C in water bath. • 3) Add 1 mL of LY364 culture to 1 liter of agar medium. • 4) Stir vigorously for 1 min. • 5) Pour 150 mL each into five 500 cm^2 plates. • 6) Allow to cool on level surface. • 7) Apply test compound.
(§4) On day 3, add 5µL 1 mg/mL S-14 to each plate. Day 5. Begin checking plates for growth around applied compounds. Day 7. Growth in response to somatostatin should be readily observable. Rate extent of growth or inhibition of growth according to rating scale described hereinabove.

Experiment [2] addresses T1, rat somatostatin receptor subtype 2 (SSTR2). Description: Yeast assay, somatostatin agonist activity (growth zone of modified yeast cells on histidine-free agar). The conditions noted are these: rating on a scale of 1-5 from zone of growing cells; S. Cerevisiae LY364. In kind it is cell-based. The procedure:
In this evaluation, yeast cells which have been specifically modified to functionally express rat somatostatin receptor subtype 2 (SSTR2) on their cell surfaces are used. S. Cerevisiae LY364 cells are plated in a standard synthetic agar medium which lacks histidine. In the absence of a somatostatin receptor agonist, the auxotrophic (his3) cells are unable to grow. In the presence of somatostatin, or a somatostatin agonist, the expression of an enzyme (His3p: imidazole-glycerol phosphate dehydratase) which is essential for histidine biosynthesis is induced. The cells become competent to produce histidine, resulting in a zone of growing cells around the applied test compound. The zone is measured and the test compound is given an agonist rating on a scale of 1-5 wherein 1 is minimum agonist activity and 5 is maximum agonist activity.
SCD-ura-trp: • 1) To 500 mL water add: • 1.7 g YNB without amino acids and (NH4)2SO4 • 5.0 g (NH4)2SO4 • 0.7 g CSM-ura-trp • 2) To additional 500 mL water add: 20 g Dextrose • 3) Autoclave separately. Mix.
SCL-ura-trp: • 1) To 500 mL water add: • 1.7 g YNB without amino acids and (NH4)2SO4 • 5.0 g (NH4)2SO4 • 0.7 g CSM-ura-trp • 2) To additional 500 mL water add: 30 mL Lactic Acid • 3) Autoclave separately. Mix.
SCG-ura-trp: • 1) To 500 mL water add: • 1.7 g YNB without amino acids and (NH4)2SO4 • 5.0 g (NH4)2SO4 • 0.7 g CSM-ura-trp • 2) To additional 500 mL water add: 30 g D-Galactose • 3) Autoclave separately. Mix.
SCG-ura-trp-his agar medium, pH 6.8: • 1) To 500 mL water add: • 1.7 g YNB without amino acids and (NH4)2SO4 • 5.0 g (NH4)2SO4 • 0.7 g CSM-ura-trp-his • Stirring Bar • 2) Adjust pH to 6.8-6.9 by dropwise addition of conc. NH4OH • 3) To additional 500 mL water add: 30 g D-Galactose, 20 g Agar • 4) Autoclave separately. • 5) Stir to mix thoroughly. • 6) Equilibrate temperature to 55°C. YNB without amino acids and (NH4)2SO4, CSM-ura-trp, and CSM-ura-trp-his are manufactured by Bio101. Ammonium sulfate ((NH4)2SO4), Dextrose (D-glucose), D-Galactose, and Lactic Acid are manufactured by Sigma.
as §1, §2, §3, §4

Positions of bridges follow the written chain, without caps; N, C: chain ends. Non-standard residues stand in square brackets, D forms with d. Residues, ends and D or L forms follow the SMILES beside them. Phe(4-NO2) = N[C@@H](Cc1ccc([N+](=O)[O-])cc1)C(=O)O; dPhe(4-NO2) = N[C@H](Cc1ccc([N+](=O)[O-])cc1)C(=O)O; 2Nal = N[C@@H](Cc1ccc2ccccc2c1)C(=O)O; Orn = NCCC[C@H](N)C(=O)O

T1 sequence (P30680 whole entry): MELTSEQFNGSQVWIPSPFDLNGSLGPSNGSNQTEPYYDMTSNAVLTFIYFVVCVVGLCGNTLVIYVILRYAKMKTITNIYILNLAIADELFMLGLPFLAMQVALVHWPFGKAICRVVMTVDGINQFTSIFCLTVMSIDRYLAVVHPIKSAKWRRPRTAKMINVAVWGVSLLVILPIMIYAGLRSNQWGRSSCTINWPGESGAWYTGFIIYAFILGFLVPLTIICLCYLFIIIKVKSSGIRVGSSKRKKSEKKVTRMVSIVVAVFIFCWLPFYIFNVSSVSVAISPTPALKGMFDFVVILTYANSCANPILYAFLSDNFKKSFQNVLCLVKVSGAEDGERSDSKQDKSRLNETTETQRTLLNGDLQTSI
SSTR2, sequence (P30680 whole entry): as above

As for `C[C@@H](O)[C@@H]1NC(=O)[C@H](CCCCN)NC(=O)[C@@H](Cc2c[nH]c3ccccc23)NC(=O)[C@H](Cc2ccc(O)cc2)NC(=O)[C@H](NC(=O)[C@@H](N)Cc2ccc(I)cc2)CSSC[C@@H](C(=O)N[C@@H](Cc2ccc(O)cc2)C(N)=O)NC1=O`, on SSTR2, the IC50 worked out at 0.6 nM and the Ki is 0.26 nM.
As for `CC(=O)N[C@@H](Cc1ccc(I)cc1)C(=O)N[C@@H]1CSSC[C@@H](C(=O)N[C@H](Cc2ccc(O)cc2)C(N)=O)NC(=O)[C@H]([C@@H](C)O)NC(=O)[C@H](CCCCN)NC(=O)[C@@H](Cc2c[nH]c3ccccc23)NC(=O)[C@H](Cc2ccc(O)cc2)NC1=O`, in experiment [1], the “Yeast Assay Antagonist” value was determined as 4. In experiment [2], the “Yeast Assay Agonist” value is on record as “-”. Further, on SSTR2, the IC50 came to 6 nM and the inhibitory constant (Ki) is 2.8 nM.
Turning to `CC(=O)N[C@@H](Cc1ccc(I)cc1)C(=O)N[C@@H]1CSSC[C@@H](C(=O)N[C@@H](Cc2ccc(O)cc2)C(N)=O)NC(=O)[C@H]([C@@H](C)O)NC(=O)[C@H](CCCCN)NC(=O)[C@@H](Cc2c[nH]c3ccccc23)NC(=O)[C@H](Cc2ccc(O)cc2)NC1=O`, the “Yeast Assay Antagonist” value in experiment [1] stood at 1. Further, in experiment [2], the “Yeast Assay Agonist” value is recorded as “-”.
With `C[C@@H](O)[C@@H]1NC(=O)[C@H](CCCCN)NC(=O)[C@@H](Cc2c[nH]c3ccccc23)NC(=O)[C@H](Cc2ccc(O)cc2)NC(=O)[C@H](NC(=O)[C@@H](N)Cc2ccc3ccccc3c2)CSSC[C@@H](C(=O)N[C@@H](Cc2ccc(O)cc2)C(N)=O)NC1=O` (H-[2Nal][dC]Y[dW]KTCY-NH2; disulfide 2-7 (inferred); N-terminus assumed), the “Yeast Assay Antagonist” value in experiment [1] is on record as 1. In addition, in experiment [2], the “Yeast Assay Agonist” value was “-”.
As for `NCCCC[C@@H]1NC(=O)[C@@H](Cc2c[nH]c3ccccc23)NC(=O)[C@H](Cc2ccc(O)cc2)NC(=O)[C@H](NC(=O)[C@@H](N)Cc2ccc([N+](=O)[O-])cc2)CSSC[C@@H](C(=O)N[C@@H](Cc2ccc3ccccc3c2)C(N)=O)NC(=O)[C@H](CO)NC1=O` (H-[Phe(4-NO2)][dC]Y[dW]KSC[2Nal]-NH2; disulfide 2-7), on SSTR2, the IC50 amounted to 10 nM and the inhibitory constant (Ki) is 4.44 nM.
For the molecule `C[C@@H](O)[C@@H]1NC(=O)[C@H](CCCNC(=N)N)NC(=O)[C@@H](Cc2c[nH]c3ccccc23)NC(=O)[C@H](Cc2ccc(O)cc2)NC(=O)[C@H](NC(=O)[C@@H](N)Cc2ccc([N+](=O)[O-])cc2)CSSC[C@@H](C(=O)N[C@@H](Cc2ccc(O)cc2)C(N)=O)NC1=O` (H-[Phe(4-NO2)][dC]Y[dW]RTCY-NH2; disulfide 2-7 (inferred)), the “Yeast Assay Antagonist” value in experiment [1] worked out at 2. The “Yeast Assay Agonist” value in experiment [2] is listed as “-”.
For the molecule `CC(C)[C@@H]1NC(=O)[C@H](CCCN)NC(=O)[C@@H](Cc2c[nH]c3ccccc23)NC(=O)[C@H](Cc2ccc(O)cc2)NC(=O)[C@H](NC(=O)[C@@H](N)Cc2ccc([N+](=O)[O-])cc2)CSSC[C@@H](C(=O)N[C@@H](Cc2ccc(O)cc2)C(N)=O)NC1=O` (H-[Phe(4-NO2)][dC]Y[dW][Orn]VCY-NH2; disulfide 2-7), at SSTR2, the IC50 was 113 nM and the Ki is 50.2 nM.
Take `CC(C)[C@@H]1NC(=O)[C@H](CCCCN)NC(=O)[C@@H](Cc2c[nH]c3ccccc23)NC(=O)[C@H](Cc2ccc(O)cc2)NC(=O)[C@H](NC(=O)[C@H](N)Cc2ccc([N+](=O)[O-])cc2)CSSC[C@@H](C(=O)N[C@@H](Cc2ccc(O)cc2)C(N)=O)NC1=O` (H-[dPhe(4-NO2)][dC]Y[dW]KVCY-NH2; disulfide 2-7): at SSTR2, the IC50 is 39 nM and the Ki is 17.3 nM.

By IC50 is commonly meant the concentration at which inhibition is half-maximal. One may read the Ki as a dissociation constant, usually derived from enzyme kinetics or from competition with a known ligand.

Source of the values: patent publication EP0791603A2, “Pure somatostatin antagonist and methods of use thereof” (American Cyanamid Company, priority 1996, dated 1997).
